# [αh] = substituted alpha-L-bicyclic nucleoside, publication subscript αh; [αj] = substituted alpha-L-bicyclic nucleoside, publication subscript αj; [αl] = substituted alpha-L-bicyclic nucleoside, publication subscript αl; [αm] = substituted alpha-L-bicyclic nucleoside, publication subscript αm; [αg] = code of the source, not defined here; d = 2'-deoxy (DNA)
# Assay: 12mer Tm study
# Type: binding
# Settings: for Tm (° C.): all linkages phosphodiester; for ΔTm/mod (° C.): change in Tm per modification
# Text: All internucleoside linkages are phosphodiester and all nucleosides not followed by a subscript are 2′-deoxyribonucleosides. The nucleosides followed by a subscript are defined below.
Substance,Tm (° C.),ΔTm/mod (° C.)
"07/438704: 12mer GCGTTUTTTGCT, all 2′-deoxyribonucleosides, all linkages phosphodiester (DNA, all phosphodiester, methylation of C not given here) [reference compound]",46.7 °C,+0.0 °C
"07/438711: 12mer GCGTTUαlTTTGCT, all linkages phosphodiester (GCGTTUTTTGCT; sugars from the 5' end d5 [αl]1 d6, all phosphodiester, methylation of C not given here) [reference compound]",50.2 °C,+4.6 °C
"07/449244: 12mer GCGTTUαjTTTGCT, all linkages phosphodiester (GCGTTUTTTGCT; sugars from the 5' end d5 [αj]1 d6, all phosphodiester, methylation of C not given here)",46.7 °C,+1.1 °C
"07/449245: 12mer GCGTTUαjTαjTTGCT, all linkages phosphodiester (GCGTTUTTTGCT; sugars from the 5' end d5 [αj]2 d5, all phosphodiester, methylation of C not given here)",47.1 °C,+1.0 °C
"07/449246: 12mer GCGTTUαhTTTGCT, all linkages phosphodiester (GCGTTUTTTGCT; sugars from the 5' end d5 [αh]1 d6, all phosphodiester, methylation of C not given here)",49.0 °C,+3.4 °C
"07/449247: 12mer GCGTTUαhTαhTTGCT, all linkages phosphodiester (GCGTTUTTTGCT; sugars from the 5' end d5 [αh]2 d5, all phosphodiester, methylation of C not given here)",53.7 °C,+4.1 °C
"07/454306: 12mer GCGTTUαlTαlTTGCT, all linkages phosphodiester (GCGTTUTTTGCT; sugars from the 5' end d5 [αl]2 d5, all phosphodiester, methylation of C not given here) [reference compound]",45.6 °C,+4.6 °C
"07/454307: 12mer GCGTTUαmTTTGCT, all linkages phosphodiester (GCGTTUTTTGCT; sugars from the 5' end d5 [αm]1 d6, all phosphodiester, methylation of C not given here)",51.3 °C,+5.5 °C
"07/454308: 12mer GCGTTUαmTαmTTGCT, all linkages phosphodiester (GCGTTUTTTGCT; sugars from the 5' end d5 [αm]2 d5, all phosphodiester, methylation of C not given here)",55.2 °C,+4.8 °C
"07/454309: 12mer GCGTTUαgTTTGCT, all linkages phosphodiester (GCGTTUTTTGCT; sugars from the 5' end d5 [αg]1 d6, all phosphodiester, methylation of C not given here)",49.7 °C,+4.2 °C
"07/454310: 12mer GCGTTUαgTαgTTGCT, all linkages phosphodiester (GCGTTUTTTGCT; sugars from the 5' end d5 [αg]2 d5, all phosphodiester, methylation of C not given here)",53.6 °C,+4.2 °C

# Reference: patent US8501805B2, “Substituted alpha-L-bicyclic nucleosides” (Isis Pharmaceuticals, Inc., priority 2008, dated 2013)
